Laboratory results published in patent US12275731B2, “Azaindole inhibitors of wild-type and mutant forms of LRRK2” (DANA-FARBER CANCER INSTITUTE, INC., priority 2018, dated 2025).

Columns and labels:
Test in all cases: KinomeScan profiling
Type in all cases: binding
[1] = biological target: T1, PKAC-beta (Homo sapiens, UniProt P22694); conditions: read-out: % control
T1 construct: purchased KinomeScan® (panel service)
Method in brief: (§1)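 Selectivity was assessed by binding competition at 1 μM against 468 kinases. Values below 35% of control define an interaction.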

[2] = biological target: MAP4K4 (Homo sapiens, UniProt O95819); conditions: MAP4K4, 1 μM; read-out: % control
Sequence of MAP4K4 (O95819 whole entry): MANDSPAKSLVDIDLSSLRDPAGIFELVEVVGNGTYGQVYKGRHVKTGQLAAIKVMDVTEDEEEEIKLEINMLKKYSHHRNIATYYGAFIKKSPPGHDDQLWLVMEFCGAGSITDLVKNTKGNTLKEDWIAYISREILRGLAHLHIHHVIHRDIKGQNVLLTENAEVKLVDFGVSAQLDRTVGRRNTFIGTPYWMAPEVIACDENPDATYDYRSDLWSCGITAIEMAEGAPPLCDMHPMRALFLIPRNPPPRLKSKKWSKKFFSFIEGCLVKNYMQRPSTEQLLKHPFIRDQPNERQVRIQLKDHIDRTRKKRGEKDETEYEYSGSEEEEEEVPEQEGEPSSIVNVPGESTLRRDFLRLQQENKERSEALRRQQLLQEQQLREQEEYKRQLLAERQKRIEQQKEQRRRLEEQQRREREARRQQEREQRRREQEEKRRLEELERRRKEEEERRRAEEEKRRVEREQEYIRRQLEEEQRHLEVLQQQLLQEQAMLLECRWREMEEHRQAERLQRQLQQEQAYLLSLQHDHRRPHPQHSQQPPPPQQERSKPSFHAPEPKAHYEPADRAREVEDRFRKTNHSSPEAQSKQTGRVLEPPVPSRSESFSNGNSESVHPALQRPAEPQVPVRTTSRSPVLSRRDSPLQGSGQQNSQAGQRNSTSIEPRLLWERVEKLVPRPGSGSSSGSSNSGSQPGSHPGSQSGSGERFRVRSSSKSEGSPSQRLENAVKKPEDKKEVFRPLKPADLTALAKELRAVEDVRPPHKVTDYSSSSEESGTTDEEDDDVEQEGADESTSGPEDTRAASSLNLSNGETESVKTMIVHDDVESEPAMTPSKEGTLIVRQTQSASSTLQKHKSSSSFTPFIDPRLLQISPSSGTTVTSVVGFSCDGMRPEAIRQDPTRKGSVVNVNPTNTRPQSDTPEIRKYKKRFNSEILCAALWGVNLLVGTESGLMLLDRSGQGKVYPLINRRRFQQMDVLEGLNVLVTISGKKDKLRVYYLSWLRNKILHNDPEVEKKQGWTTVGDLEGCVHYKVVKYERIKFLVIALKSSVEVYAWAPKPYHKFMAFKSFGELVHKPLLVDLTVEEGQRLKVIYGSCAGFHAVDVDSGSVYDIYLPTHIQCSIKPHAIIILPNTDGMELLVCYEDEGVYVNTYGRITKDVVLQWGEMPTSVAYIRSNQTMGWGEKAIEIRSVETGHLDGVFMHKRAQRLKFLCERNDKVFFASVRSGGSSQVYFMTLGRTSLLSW
Method in brief: as §1

[3] = biological target: T2, GAK (Homo sapiens, UniProt O14976); conditions: read-out: % control
T2 sequence (O14976 1-1311): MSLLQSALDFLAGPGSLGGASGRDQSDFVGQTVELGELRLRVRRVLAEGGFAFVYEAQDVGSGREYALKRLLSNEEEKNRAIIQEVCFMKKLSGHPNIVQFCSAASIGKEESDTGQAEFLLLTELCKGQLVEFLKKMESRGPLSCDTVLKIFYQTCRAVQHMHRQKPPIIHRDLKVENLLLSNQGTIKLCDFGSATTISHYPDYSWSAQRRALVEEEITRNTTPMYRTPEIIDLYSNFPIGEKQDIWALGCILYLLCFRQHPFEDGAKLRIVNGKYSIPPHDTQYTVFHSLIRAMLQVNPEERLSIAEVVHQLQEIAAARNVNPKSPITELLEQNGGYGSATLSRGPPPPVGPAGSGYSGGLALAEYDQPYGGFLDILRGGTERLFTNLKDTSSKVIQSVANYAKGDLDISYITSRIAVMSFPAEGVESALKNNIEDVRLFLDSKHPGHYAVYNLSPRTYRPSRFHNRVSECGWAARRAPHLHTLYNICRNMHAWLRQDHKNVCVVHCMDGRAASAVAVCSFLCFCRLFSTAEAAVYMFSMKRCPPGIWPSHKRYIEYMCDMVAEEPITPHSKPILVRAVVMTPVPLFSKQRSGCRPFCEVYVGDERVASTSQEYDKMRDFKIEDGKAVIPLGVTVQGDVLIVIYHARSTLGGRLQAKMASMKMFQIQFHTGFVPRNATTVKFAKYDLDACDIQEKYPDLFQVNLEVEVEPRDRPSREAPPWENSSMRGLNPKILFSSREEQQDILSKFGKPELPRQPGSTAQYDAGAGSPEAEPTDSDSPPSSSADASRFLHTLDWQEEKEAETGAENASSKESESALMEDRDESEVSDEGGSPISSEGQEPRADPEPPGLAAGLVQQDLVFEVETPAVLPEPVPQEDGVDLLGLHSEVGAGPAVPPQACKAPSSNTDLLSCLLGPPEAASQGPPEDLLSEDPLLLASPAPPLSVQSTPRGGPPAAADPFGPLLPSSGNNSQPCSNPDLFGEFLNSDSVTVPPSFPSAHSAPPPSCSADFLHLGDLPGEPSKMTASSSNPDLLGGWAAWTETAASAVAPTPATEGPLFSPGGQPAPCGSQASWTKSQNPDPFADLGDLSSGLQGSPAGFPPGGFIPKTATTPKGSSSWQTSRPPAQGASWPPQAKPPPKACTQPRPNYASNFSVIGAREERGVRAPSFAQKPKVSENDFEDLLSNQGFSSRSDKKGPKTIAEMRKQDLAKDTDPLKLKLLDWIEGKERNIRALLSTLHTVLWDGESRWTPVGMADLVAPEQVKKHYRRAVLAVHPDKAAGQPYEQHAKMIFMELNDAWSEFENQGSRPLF
Method in brief: as §1

[4] = biological target: MST4 (Homo sapiens, UniProt Q9P289); conditions: MST4, 1 μM; read-out: % control
Sequence of MST4 (Q9P289 whole entry): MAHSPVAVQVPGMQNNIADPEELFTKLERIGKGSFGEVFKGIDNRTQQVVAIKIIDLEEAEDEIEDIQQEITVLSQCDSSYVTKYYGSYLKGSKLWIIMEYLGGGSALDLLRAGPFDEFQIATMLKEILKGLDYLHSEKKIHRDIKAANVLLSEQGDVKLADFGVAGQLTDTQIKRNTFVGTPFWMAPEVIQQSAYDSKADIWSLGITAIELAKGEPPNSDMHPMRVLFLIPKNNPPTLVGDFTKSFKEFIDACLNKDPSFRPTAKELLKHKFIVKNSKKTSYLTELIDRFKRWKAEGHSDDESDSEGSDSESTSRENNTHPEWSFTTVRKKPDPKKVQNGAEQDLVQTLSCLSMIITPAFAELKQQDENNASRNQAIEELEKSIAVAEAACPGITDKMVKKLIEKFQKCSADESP
Method in brief: as §1

[5] = biological target: T3, ICK (Homo sapiens, UniProt Q9UPZ9); conditions: read-out: % control
T3 sequence (Q9UPZ9 1-632): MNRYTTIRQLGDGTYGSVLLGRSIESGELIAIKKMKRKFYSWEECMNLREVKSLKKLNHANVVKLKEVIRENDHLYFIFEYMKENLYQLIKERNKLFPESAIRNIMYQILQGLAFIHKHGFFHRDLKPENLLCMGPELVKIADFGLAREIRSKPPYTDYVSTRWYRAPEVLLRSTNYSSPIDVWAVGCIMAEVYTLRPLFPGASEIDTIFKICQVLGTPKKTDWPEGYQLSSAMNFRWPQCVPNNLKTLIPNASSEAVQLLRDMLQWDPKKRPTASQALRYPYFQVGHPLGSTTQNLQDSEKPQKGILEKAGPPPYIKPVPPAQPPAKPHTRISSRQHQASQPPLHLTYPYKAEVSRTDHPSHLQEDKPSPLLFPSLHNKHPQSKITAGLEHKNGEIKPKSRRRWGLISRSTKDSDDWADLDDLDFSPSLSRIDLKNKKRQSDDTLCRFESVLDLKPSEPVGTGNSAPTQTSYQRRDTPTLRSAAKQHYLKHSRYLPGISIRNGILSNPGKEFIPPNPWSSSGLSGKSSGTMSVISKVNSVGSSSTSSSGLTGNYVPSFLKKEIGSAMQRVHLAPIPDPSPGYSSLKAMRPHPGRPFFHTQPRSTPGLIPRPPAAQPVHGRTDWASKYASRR
Method in brief: as §1

[6] = biological target: CSK (Homo sapiens, UniProt P41240); conditions: read-out: % control
Sequence of CSK (P41240 whole entry): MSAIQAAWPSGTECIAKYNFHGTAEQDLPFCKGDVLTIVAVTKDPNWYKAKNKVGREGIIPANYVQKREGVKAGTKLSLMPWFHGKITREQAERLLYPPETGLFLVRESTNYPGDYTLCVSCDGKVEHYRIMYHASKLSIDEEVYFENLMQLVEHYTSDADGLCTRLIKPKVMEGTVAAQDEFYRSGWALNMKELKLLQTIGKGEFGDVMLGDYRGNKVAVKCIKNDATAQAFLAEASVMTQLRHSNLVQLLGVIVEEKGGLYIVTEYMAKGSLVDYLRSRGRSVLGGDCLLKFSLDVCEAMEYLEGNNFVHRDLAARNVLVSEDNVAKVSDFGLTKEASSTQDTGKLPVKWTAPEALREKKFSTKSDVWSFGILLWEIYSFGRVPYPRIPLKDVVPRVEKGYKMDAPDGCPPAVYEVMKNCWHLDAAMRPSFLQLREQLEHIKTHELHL
Method in brief: as §1

[7] = biological target: T4, ABL1(F317I)-phoshorylated (Homo sapiens, UniProt P00519, F317I); conditions: read-out: % control
T4 construct: purchased KinomeScan®
T4 sequence (P00519 whole entry F317I): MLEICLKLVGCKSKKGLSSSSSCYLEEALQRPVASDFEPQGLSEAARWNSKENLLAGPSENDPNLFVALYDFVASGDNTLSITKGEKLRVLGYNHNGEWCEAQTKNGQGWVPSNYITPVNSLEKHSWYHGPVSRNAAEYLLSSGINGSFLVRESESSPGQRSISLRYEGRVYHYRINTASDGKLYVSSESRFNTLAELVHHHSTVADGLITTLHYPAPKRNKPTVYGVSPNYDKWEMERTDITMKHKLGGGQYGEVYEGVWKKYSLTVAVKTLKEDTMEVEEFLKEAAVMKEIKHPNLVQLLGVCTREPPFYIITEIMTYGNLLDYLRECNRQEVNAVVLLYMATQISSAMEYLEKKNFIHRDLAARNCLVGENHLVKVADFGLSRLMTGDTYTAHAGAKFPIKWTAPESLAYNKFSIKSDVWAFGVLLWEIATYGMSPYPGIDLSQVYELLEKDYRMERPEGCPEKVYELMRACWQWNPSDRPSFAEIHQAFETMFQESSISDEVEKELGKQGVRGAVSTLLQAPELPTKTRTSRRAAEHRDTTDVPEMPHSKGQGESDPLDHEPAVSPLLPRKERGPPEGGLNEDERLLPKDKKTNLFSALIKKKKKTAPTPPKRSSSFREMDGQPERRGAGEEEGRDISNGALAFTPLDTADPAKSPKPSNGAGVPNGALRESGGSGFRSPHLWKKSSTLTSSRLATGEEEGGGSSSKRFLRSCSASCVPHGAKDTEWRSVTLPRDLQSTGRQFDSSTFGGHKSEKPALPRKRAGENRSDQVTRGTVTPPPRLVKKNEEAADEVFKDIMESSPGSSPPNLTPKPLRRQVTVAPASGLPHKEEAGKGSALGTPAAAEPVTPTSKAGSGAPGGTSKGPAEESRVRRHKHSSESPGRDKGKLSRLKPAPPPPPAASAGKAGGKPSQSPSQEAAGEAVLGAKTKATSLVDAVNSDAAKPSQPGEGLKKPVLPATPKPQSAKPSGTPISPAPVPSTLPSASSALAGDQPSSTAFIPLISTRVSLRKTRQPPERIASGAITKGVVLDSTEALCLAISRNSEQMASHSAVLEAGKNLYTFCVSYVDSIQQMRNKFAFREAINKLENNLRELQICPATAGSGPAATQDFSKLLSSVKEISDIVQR
Method in brief: as §1

[8] = biological target: NEK6 (Homo sapiens, UniProt Q9HC98); conditions: NEK6, 1 μM; read-out: % control
Sequence of NEK6 (Q9HC98 whole entry): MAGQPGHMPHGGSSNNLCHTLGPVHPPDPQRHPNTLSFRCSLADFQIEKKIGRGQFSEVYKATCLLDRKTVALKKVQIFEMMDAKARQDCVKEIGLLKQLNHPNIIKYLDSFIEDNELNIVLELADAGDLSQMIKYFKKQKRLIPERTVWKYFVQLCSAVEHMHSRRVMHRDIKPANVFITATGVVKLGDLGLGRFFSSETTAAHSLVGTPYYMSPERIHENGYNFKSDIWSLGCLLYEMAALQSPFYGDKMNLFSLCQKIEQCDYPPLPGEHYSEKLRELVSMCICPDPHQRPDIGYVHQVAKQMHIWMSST
Method in brief: as §1

Row | SMILES | remaining binding at 1 µM [1] [%] | remaining binding at 1 µM [2] [%] | remaining binding at 1 µM [3] [%] | remaining binding at 1 µM [4] [%] | remaining binding at 1 µM [5] [%] | remaining binding at 1 µM [6] [%] | remaining binding at 1 µM [7] [%] | remaining binding at 1 µM [8] [%]
1 | CNc1c(-c2ccc(C(=O)N3CCC(N4CCOCC4)CC3)cc2)cnc2[nH]cc(Cl)c12 [Compound 96, (4-(3-chloro-4-(methylamino)-1H-pyrrolo[2,3-b]pyridin-5-yl)phenyl)(4-morpholinopiperidin-1-yl)methanone] | 100 | 19 | 99 | 99 | 35 | 44 | 100 | 88
2 | O=C(c1ccc(-c2cnc3[nH]cc(Cl)c3c2NC2CCCC2)cc1)N1CCC(N2CCOCC2)CC1 [Compound 101, (4-(3-chloro-4-(cyclopentylamino)-1H-pyrrolo[2,3-b]pyridin-5-yl)phenyl)(4-morpholinopiperidin-1-yl)methanone] | 90 | 78 | 99 | 100 | 100 | 100 | 10 | 100
3 | CNc1c(-c2cnn([C@H]3CCN(C(C)=O)C[C@@H]3F)c2)cnc2[nH]cc(Cl)c12 [Compound 77, 1-((3S,4S)-4-(4-(3-chloro-4-(methylamino)-1H-pyrrolo[2,3-b]pyridin-5-yl)-1H-pyrazol-1-yl)-3-fluoropiperidin-1-yl)ethan-1-one] | 100 | 58 | 100 | 67 | 35 | 22 | 81 | 92
